From ChEMBL document CHEMBL4725351, “Cyclic Derivative of Host-Defense Peptide IDR-1018 Improves Proteolytic Stability, Suppresses Inflammation, and Enhances In Vivo Activity” (J Med Chem, 2020)
Calls of active or inactive are those of the source. No cut-off for these calls is given here. Where a SMILES comes first, the peptide text is derived from it. Bridges are numbered along the chain shown (N, C = ends).

Columns and labels:
Staphylococcus aureus [1] = assay: Antibiofilm activity against 24 hrs preformed methicillin-resistant Staphylococcus aureus SAP0017 biofilm assessed as reduction in biofilm viability at 7.2 to 30.3 uM by TTC assay relative to control; assay type: functional; details: dose microM 7.2-30.3
Staphylococcus aureus [2] = assay: Antibiofilm activity against 24 hrs preformed methicillin-resistant Staphylococcus aureus USA300 LAC biofilm assessed as reduction in biofilm viability at 7.2 to 30.3 uM by TTC assay relative to control; assay type: functional; details: dose microM 7.2-30.3
Staphylococcus aureus [3] = assay: Antibiofilm activity against 24 hrs preformed methicillin-resistant Staphylococcus aureus SAP0017 biofilm assessed as reduction in biofilm viability at 100 ug/ml by TTC assay; assay type: functional, organism-based; details: dose 100.0 µg/ml
Staphylococcus aureus [4] = assay: Antibiofilm activity against 24 hrs preformed methicillin-resistant Staphylococcus aureus USA300 LAC biofilm assessed as reduction in biofilm viability at 100 ug/ml by TTC assay; assay type: functional, organism-based; details: dose 100.0 µg/ml

| Compound | Activity (Staphylococcus aureus [1]) [%] | Activity (Staphylococcus aureus [2]) [%] | Activity (Staphylococcus aureus [3]) | Activity (Staphylococcus aureus [4]) |
| --- | --- | --- | --- | --- |
| CC[C@H](C)[C@@H]1NC(=O)[C@H](CCCNC(=N)N)NC(=O)[C@H](C(C)C)NC(=O)[C@H](C)NC(=O)[C@H](C(C)C)NC(=O)[C@H]([C@@H](C)CC)NC(=O)[C@H](CC(C)C)NC(=O)[C@H](CCCNC(=N)N)NC(=O)[C@H](C(C)C)NC(=O)CC[C@@H](C(N)=O)NC(=O)[C@H](CCCNC(=N)N)NC(=O)[C@H](CCCNC(=N)N)NC(=O)[C@H](Cc2c[nH]c3ccccc23)NC1=O (VRLIVAVRIWRRE-NH2; lactam N-13) | 70 | 70 | – | – |
| CN[C@H](CC(C)C)C(=O)N[C@H]1C(=O)N[C@@H](CC(N)=O)C(=O)N[C@H]2C(=O)N[C@H]3C(=O)N[C@H](C(=O)N[C@H](C(=O)O)c4cc(O)cc(O)c4-c4cc3ccc4O)[C@H](O)c3ccc(c(Cl)c3)Oc3cc2cc(c3O[C@@H]2O[C@H](CO)[C@@H](O)[C@H](O)[C@H]2O[C@H]2C[C@](C)(N)[C@H](O)[C@H](C)O2)Oc2ccc(cc2Cl)[C@H]1O [VANCOMYCIN] | – | – | inactive | inactive |
| H-VRLIVAVRIWRR-NH2 | 70 | 70 | – | – |
